Measured values published in patent publication US20230158025A1 (UNIVERSITY OF UTAH RESEARCH FOUNDATION, priority 2020, published 2023).
Like-named read-outs stand apart in the source and are kept apart here.

Legend:
[1] = rat microsomal stability (RLM)
[2] = aqueous kinetic solubility
recombinant human GALK1 = recombinant human GALK1 (Homo sapiens, UniProt P51570); assay: hGALK1 biochemical activity assay (Kinase-Glo Plus, ATP depletion)
Outline: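 Recombinant human or mouse GALK1 (5 nM, with 100 μM galactose, in the added enzyme solution) was run with ATP (35 μM in the substrate solution) in HEPES pH 8.0 buffer. Compounds were tested at 11 1/3-step concentrations from 57.4 μM to 0.97 nM. After 1 h at room temperature, remaining ATP was read by Kinase-Glo Plus luminescence.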

recombinant mouse GALK1 = recombinant mouse GALK1 (Mus musculus, UniProt Q9R0N0); assay: mGALK1 biochemical activity assay (Kinase-Glo Plus, ATP depletion)
Chain of recombinant mouse GALK1 (Q9R0N0 whole entry): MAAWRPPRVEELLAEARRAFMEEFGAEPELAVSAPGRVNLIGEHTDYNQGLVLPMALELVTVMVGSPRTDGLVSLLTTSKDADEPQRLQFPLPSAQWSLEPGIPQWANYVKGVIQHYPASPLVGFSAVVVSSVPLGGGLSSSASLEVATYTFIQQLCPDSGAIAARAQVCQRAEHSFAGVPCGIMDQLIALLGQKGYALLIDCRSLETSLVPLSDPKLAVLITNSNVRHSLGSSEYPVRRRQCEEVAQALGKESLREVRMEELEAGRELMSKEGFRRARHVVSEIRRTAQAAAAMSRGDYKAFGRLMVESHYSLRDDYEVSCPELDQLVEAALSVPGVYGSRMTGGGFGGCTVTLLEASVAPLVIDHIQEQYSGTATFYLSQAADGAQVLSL
Outline: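 Recombinant GALK1 (5 nM) with 100 μM galactose; GALK1 turnover read as ATP depletion by Kinase-Glo Plus luminescence. Reaction ran 1 h at room temperature before detection reagent was added.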

[3] = Tables 2-15, 35 μM ATP, 100 μM galactose, 1 h, bracketed figure after some values (e.g. −1.2) is undefined and not reported, read-out: hGALK IC50
[4] = Tables 2-15, 35 μM ATP, 100 μM galactose, 1 h, bracketed figure after some values is undefined and not reported, read-out: mGALK IC50
[5] = recombinant mouse GALK1, Kinase-Glo Plus ATP depletion, read-out: mGALK
[6] = recombinant human GALK1, Kinase-Glo Plus ATP depletion, read-out: hGALK
[7] = microsomal stability half-life, minutes
[8] = recombinant human GALK1, Kinase-Glo Plus ATP depletion, bracketed figure in the cell, e.g. (−1.2), is not defined in the text shown, read-out: hGALK
[9] = recombinant mouse GALK1, Kinase-Glo Plus ATP depletion, bracketed figure in the cell, e.g. (−1.2), is not defined in the text shown, read-out: mGALK
[10] = recombinant mouse GALK1, Kinase-Glo Plus ATP depletion

Chain of recombinant human GALK1 (P51570 whole entry): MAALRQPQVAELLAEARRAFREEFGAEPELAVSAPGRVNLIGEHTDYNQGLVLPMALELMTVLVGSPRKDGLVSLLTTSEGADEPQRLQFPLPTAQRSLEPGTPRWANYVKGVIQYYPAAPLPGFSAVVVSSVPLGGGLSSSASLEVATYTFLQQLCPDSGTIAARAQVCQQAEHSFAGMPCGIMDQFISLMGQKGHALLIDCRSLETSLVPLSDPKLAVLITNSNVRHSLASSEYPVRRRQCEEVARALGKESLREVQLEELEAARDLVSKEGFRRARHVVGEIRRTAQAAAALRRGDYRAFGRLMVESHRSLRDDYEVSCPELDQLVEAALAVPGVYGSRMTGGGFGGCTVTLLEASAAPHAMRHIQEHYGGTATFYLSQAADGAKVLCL

Row | SMILES | Metab. Stabil. (m) ([1]; microsomal stability half-life) | Perm. (1 × 10^−6 cm/sec) (PAMPA permeability; PAMPA) | Sol. ([2]; aqueous kinetic solubility) [µg/mL] | IC50 (recombinant human GALK1; [3]) [µM] | IC50 (recombinant mouse GALK1; [4]) [µM] | IC50 (recombinant mouse GALK1; [5]) [µM] | Metab. Stabil. (m) ([1]; microsomal half-life) | Perm. (1 × 10^−6 cm/sec) (PAMPA permeability) | Sol. [2] [µg/mL] | IC50 (recombinant human GALK1; [6]) [µM] | Metab. Stabil. (m) [1, 7] [m] | IC50 (recombinant human GALK1; [8]) [µM] | IC50 (recombinant mouse GALK1; [9]) [µM] | mGALK (μM) (recombinant mouse GALK1; [10]) | Papp (PAMPA permeability; PAMPA, Perm. (1 × 10^−6 cm/sec)) [×10⁻⁶ cm/s] | mGALK IC50 (recombinant mouse GALK1; Tables 2-15, 35 μM ATP, 100 μM galactose, 1 h, bracketed figure after some values is undefined and not reported)
1 | CC1=C(C(=O)Nc2cc(B(O)O)ccn2)C(c2ccc(C)cc2Cl)N=C(Nc2nc3ccc(F)cc3o2)N1 (stereo not shown) [Compound 92, (2-(4-(2-chloro-4-methylphenyl)-2-((6-fluorobenzo[d]oxazol-2-yl)amino)-6-methyl-1,4-dihydropyrimidine-5-carboxamido)pyridin-4-yl)boronic acid] | – | – | – | 1.93 | 10.9 | 10.9 | 14.13 | <3.2 1 × 10^−6 cm/sec | <1 | 1.93 | – | – | – | – | – | –
2 | CCn1cc(CNC(=O)C2=C(C)NC(Nc3nc4ccc(F)c(N)c4o3)=NC2c2ccc(Cl)cc2Cl)cn1 (stereo not shown) [Compound 130, 2-((7-amino-6-fluorobenzo[d]oxazol-2-yl)amino)-4-(2,4-dichlorophenyl)-N-((1-ethyl-1H-pyrazol-4-yl)methyl)-6-methyl-1,4-dihydropyrimidine-5-carboxamide] | 6.787 | 380.3 1 × 10^−6 cm/sec | <1 | – | – | 1.93 | – | – | – | 0.27 | – | – | – | – | – | –
3 | CC1=C(C(=O)NCc2ccccc2CO)C(c2ccccc2Cl)N=C(Nc2nc3ccccc3o2)N1 (stereo not shown) [Compound 229, 2-(benzo[d]oxazol-2-ylamino)-4-(2-chlorophenyl)-N-(2-(hydroxymethyl)benzyl)-6-methyl-1,4-dihydropyrimidine-5-carboxamide] | 5.0859 | 1362.3 1 × 10^−6 cm/sec | <1 | 6.11 | 15.3 | 15.3 | – | – | – | – | – | – | – | – | – | –
4 | O=C1CC(C(=O)NCCO)CC2=C1C(c1ccccc1Cl)N=C(Nc1nc3ccccc3o1)N2 (stereo not shown) [Compound 279, 2-(benzo[d]oxazol-2-ylamino)-4-(2-chlorophenyl)-N-(2-hydroxyethyl)-5-oxo-1,4,5,6,7,8-hexahydroquinazoline-7-carboxamide] | – | <2 1 × 10^−6 cm/sec | 28.98 | – | – | – | – | – | – | – | >30 | 4.85 | 5.44 | – | – | –
5 | CC1=C(C(=O)Nc2cc(C(=O)O)ccn2)C(c2ccc(N3CCCCC3)cc2Cl)N=C(Nc2nc3ccc(F)cc3o2)N1 (stereo not shown) [Compound 58, 2-(4-(2-chloro-4-(piperidin-1-yl)phenyl)-2-((6-fluorobenzo[d]oxazol-2-yl)amino)-6-methyl-1,4-dihydropyrimidine-5-carboxamido)isonicotinic acid] | – | – | – | 1.22 | 12.2 | 12.2 | >30 | 1.35 1 × 10^−6 cm/sec | 1.92 | – | – | – | – | – | – | –
6 | CC1=C(C(=O)Nc2nnc(-c3cccnc3)s2)C(c2ccccc2Cl)N=C(Nc2nc3ccc(Cl)cc3o2)N1 (stereo not shown) [Compound 94, 2-((6-chlorobenzo[d]oxazol-2-yl)amino)-4-(2-chlorophenyl)-6-methyl-N-(5-(pyridin-3-yl)-1,3,4-thiadiazol-2-yl)-1,4-dihydropyrimidine-5-carboxamide] | – | – | – | – | – | – | >30 | <10.3 1 × 10^−6 cm/sec | <1 | 27.3 | – | – | – | in- active | – | –
7 | COc1ccc(C2N=C(Nc3nc4cccc(N)c4o3)NC(C)=C2C(=O)Nc2cc(C(=O)O)ccn2)c(Cl)c1 (racemic) [Compound 80, 2-(2-((7-aminobenzo[d]oxazol-2-yl)amino)-4-(2-chloro-4-methoxyphenyl)-6-methyl-1,4-dihydropyrimidine-5-carboxamido)isonicotinic acid] | – | – | – | 0.14 | 1.93 | 1.93 | >30 | – | >81 | 0.14 | – | – | – | – | < 1 | –
8 | CC1=C(C(=O)Nc2cc(C(=O)O)ccn2)C(c2ccc(-c3ccc(C)nc3)cc2Cl)N=C(Nc2nc3ccc(F)cc3o2)N1 (stereo not shown) [Compound 69, 2-(4-(2-chloro-4-(6-methylpyridin-3-yl)phenyl)-2-((6-fluorobenzo[d]oxazol-2-yl)amino)-6-methyl-1,4-dihydropyrimidine-5-carboxamido)isonicotinic acid] | – | – | – | – | 1.22 | 1.22 | >30 | <1 1 × 10^−6 cm/sec | >90 | 0.34 | – | – | – | – | – | –
9 | CC1=C(C(=O)NCc2cnn(C)c2)[C@H](c2ccc(C)cc2Cl)N=C(Nc2nc3cccc(N)c3o2)N1 [Compound 115, (R)-2-((7-aminobenzo[d]oxazol-2-yl)amino)-4-(2-chloro-4-methylphenyl)-6-methyl-N-((1-methyl-1H-pyrazol-4-yl)methyl)-1,4-dihydropyrimidine-5-carboxamide] | – | – | – | – | – | 1.58 | 18.91 | 416.8 1 × 10^−6 cm/sec | 17.14 | 0.13 | – | – | – | – | – | –
10 | CC1=C(C(=O)Nc2cc(C(=O)O)ccn2)C(c2ccc(C)cc2Cl)N=C(Nc2nc3cccnc3o2)N1 (stereo not shown) [Compound 108, 2-(4-(2-chloro-4-methylphenyl)-6-methyl-2-(oxazolo[5,4-b]pyridin-2-ylamino)-1,4-dihydropyrimidine-5-carboxamido)isonicotinic acid] | – | – | – | 12.2 | – | – | >30 | <1 1 × 10^−6 cm/sec | >51 | 12.2 | – | – | – | in- active | – | inactive
11 | CC1=C(C(=O)Nc2cc(C(=O)O)ccn2)C(c2cccc([N+](=O)[O-])c2Cl)N=C(Nc2nc3ccc(F)cc3o2)N1 (stereo not shown) [Compound 63, 2-(4-(2-chloro-3-nitrophenyl)-2-((6-fluorobenzo[d]oxazol-2-yl)amino)-6-methyl-1,4-dihydropyrimidine-5-carboxamido)isonicotinic acid] | – | – | – | – | – | 34.3 | >30 | <1 1 × 10^−6 cm/sec | >84 | 19.3 | – | – | – | – | – | –
12 | CNC(=O)C1CC(=O)C2=C(C1)NC(Nc1nc3ccccc3o1)=NC2c1ccccc1Cl (stereo not shown) [Compound 278, 2-(benzo[d]oxazol-2-ylamino)-4-(2-chlorophenyl)-N-methyl-5-oxo-1,4,5,6,7,8-hexahydroquinazoline-7-carboxamide] | – | 430.36 1 × 10^−6 cm/sec | <1 | – | – | – | – | – | – | – | >30 | 6.11 | 6.85 | – | – | –

Now from value to compound:

Row | Metab. Stabil. (m) ([1]; microsomal stability half-life) | Perm. (1 × 10^−6 cm/sec) (PAMPA permeability; PAMPA) | Sol. ([2]; aqueous kinetic solubility) [µg/mL] | IC50 (recombinant human GALK1; [3]) [µM] | IC50 (recombinant mouse GALK1; [4]) [µM] | IC50 (recombinant mouse GALK1; [5]) [µM] | Metab. Stabil. (m) ([1]; microsomal half-life) | Perm. (1 × 10^−6 cm/sec) (PAMPA permeability) | Sol. [2] [µg/mL] | IC50 (recombinant human GALK1; [6]) [µM] | Metab. Stabil. (m) [1, 7] [m] | IC50 (recombinant human GALK1; [8]) [µM] | IC50 (recombinant mouse GALK1; [9]) [µM] | mGALK (μM) (recombinant mouse GALK1; [10]) | Papp (PAMPA permeability; PAMPA, Perm. (1 × 10^−6 cm/sec)) [×10⁻⁶ cm/s] | mGALK IC50 (recombinant mouse GALK1; Tables 2-15, 35 μM ATP, 100 μM galactose, 1 h, bracketed figure after some values is undefined and not reported) | SMILES
13 | 17.94 | 21.1 1 × 10^−6 cm/sec | <1 | 6.85 | 17.2 | 17.2 | – | – | – | – | – | – | – | – | – | – | CC1=C(C(=O)Nc2ccccc2O)C(c2ccccc2Cl)N=C(Nc2nc3ccccc3o2)N1 (stereo not shown) [Compound 161, 2-(benzo[d]oxazol-2-ylamino)-N-(2-hydroxyphenyl)-4-(2-chlorophenyl)-6-methyl-1,4-dihydropyrimidine-5-carboxamide]
14 | >30 | 156.0 1 × 10^−6 cm/sec | <1 | 2.43 | 7.69 | 7.69 | – | – | – | 2.43 | – | – | – | – | – | – | CC1=C(C(=O)Nc2cc(C(N)=O)ccn2)C(c2ccccc2Cl)N=C(Nc2nc3ccccc3o2)N1 (stereo not shown) [Compound 212, 2-(benzo[d]oxazol-2-ylamino)-N-(4-carbamoylpyridin-2-yl)-4-(2-chlorophenyl)-6-methyl-1,4-dihydropyrimidine-5-carboxamide]
15 | >30 | 421.9 1 × 10^−6 cm/sec | <1 | 3.06 | 10.9 | 10.9 | – | – | – | 3.06 | – | – | – | – | – | – | CNC(=O)c1ccnc(NC(=O)C2=C(C)NC(Nc3nc4ccccc4o3)=NC2c2ccccc2Cl)c1 (stereo not shown) [Compound 213, 2-(benzo[d]oxazol-2-ylamino)-4-(2-chlorophenyl)-6-methyl-N-(4-(methylcarbamoyl)pyridin-2-yl)-1,4-dihydropyrimidine-5-carboxamide]
16 | – | – | – | 0.24 | 1.72 | 1.72 | >30 | <1 1 × 10^−6 cm/sec | 55.6 | 0.24 | – | – | – | – | – | – | CC1=C(C(=O)Nc2cc(C(=O)O)ccn2)[C@H](c2ccccc2Cl)N=C(Nc2nc3ccc(F)cc3o2)N1 [Compound 19, (R)-2-(4-(2-chlorophenyl)-2-((6-fluorobenzo[d]oxazol-2-yl)amino)-6-methyl-1,4-dihydropyrimidine-5-carboxamido)isonicotinic acid]
17 | >30 | 161.4 1 × 10^−6 cm/sec | <1 | 12.2 | 19.3 | 19.3 | – | – | – | 12.2 | – | – | – | – | – | – | CC1=C(C(=O)Nc2ncc(CO)s2)C(c2ccccc2Cl)N=C(Nc2nc3ccccc3o2)N1 (stereo not shown) [Compound 193, 2-(benzo[d]oxazol-2-ylamino)-4-(2-chlorophenyl)-N-(5-(hydroxymethyl)thiazol-2-yl)-6-methyl-1,4-dihydropyrimidine-5-carboxamide]
